Each structure is given as a SMILES string.

What all share (assay type): cell-based
One data set deals with H4. Briefly: Cytotoxicity against human H4 cells by MTS assay.
Data set [1] has as its target Gamma-secretase. The data set can be described thus: Modulation of gamma-secretase in human H4 cells assessed as increase in amyloid beta38 production by LPECL assay.
The target of data set [2] is Gamma-secretase. The data set can be described thus: Modulation of gamma-secretase in human H4 cells assessed as inhibition of in amyloid beta40 production by LPECL assay.
For data set [3], the target named is Gamma-secretase. The data set can be described thus: Modulation of gamma-secretase in human H4 cells assessed as inhibition of in amyloid beta42 production by LPECL assay.
Data set [4] addresses Gamma-secretase (Homo sapiens) (UniProt Q96BI3+Q9NZ42+Q8WW43+P49768+Q92542+P49810). Briefly: Modulation of gamma-secretase in human H4 cells assessed as reduction of in amyloid beta42 production at 40 uM by LPECL assay. The arrangement: scale not given: the % may be the effect or the level left.

The compound `CCCCCCCCCCCCO/N=C(/c1ccc(Cl)cc1)c1ccc(OC(C)(C)C(=O)O)cc1` showed an Activity in the data set with H4 of 80 µM. For the same compound, the EC50 (in general, the midpoint of the concentration-response curve) on Gamma-secretase [1] was greater than 40 µM. Also, the concentration for half-maximal inhibition (IC50) on Gamma-secretase [2] and at Gamma-secretase [3] was greater than 40 µM each time.
Turning to `CCCCCCCCCO/N=C(/c1ccc(Cl)cc1)c1ccc(OC(C)(C)C(=O)O)cc1`, the concentration giving a half-maximal response (EC50) at Gamma-secretase [1] was greater than 40 µM. In addition, the IC50 on Gamma-secretase [2] and on Gamma-secretase [3] was greater than 40 µM in each case.
As for `CC(C)(Oc1ccc(/C(=N\OCCCCCCCCO/N=C(/c2ccc(Cl)cc2)c2ccc(OC(C)(C)C(=O)O)cc2)c2ccc(Cl)cc2)cc1)C(=O)O`, the EC50 on Gamma-secretase [1] is 47.6 µM. Moreover, the values for the IC50 at Gamma-secretase [2] and at Gamma-secretase [3] were 37.3 µM and 23.7 µM, respectively.
The compound `CC(C)(Oc1ccc(/C(=N\OCCCCCCCCCCO/N=C(/c2ccc(Cl)cc2)c2ccc(OC(C)(C)C(=O)O)cc2)c2ccc(Cl)cc2)cc1)C(=O)O` came in with an Activity with H4 of 80 µM. Moreover, the half-maximal effective concentration (EC50) on Gamma-secretase [1] was greater than 40 µM. The figures for the IC50 on Gamma-secretase [2] and at Gamma-secretase [3] were greater than 40 µM and greater than 32.6 µM, respectively.
As for `CCCCCCCC/C=C\CCCCCCCC(=O)n1c2ccccc2c2ccc(OCC(=O)O)cc21`, at Gamma-secretase [1], the EC50 worked out at 9.2 µM. Besides, the results for the half-inhibitory concentration (IC50) on Gamma-secretase [2] and on Gamma-secretase [3] were greater than 40 µM and 13.1 µM, respectively.
For `CCCCCCCCCCCCCCCCO/N=C(/c1ccc(Cl)cc1)c1ccc(OC(C)(C)C(=O)O)cc1` the same measures were greater than 80 µM, greater than 80 µM and greater than 80 µM.
Regarding `CCCCCCCCO/N=C(/c1ccc(Cl)cc1)c1ccc(OC(C)(C)C(=O)O)cc1`, the Activity in the data set on H4 came out at 80 µM; in data set [4], 60%. The EC50 at Gamma-secretase [1] worked out at 16.1 µM. In addition, the IC50 (commonly the concentration at which inhibition is half-maximal) stood at 47.6 µM at Gamma-secretase [2] and 36.2 µM on Gamma-secretase [3].
Consider `CCCCCCCCCCCCCCCCCCn1c2ccccc2c2ccc(OCC(=O)O)cc21`, for which the half-maximal effective concentration (EC50) at Gamma-secretase [1] was found to be 1.4 µM. Besides, the half-maximal inhibitory concentration (IC50) at Gamma-secretase [2] was greater than 80 µM; on Gamma-secretase [3], 26 µM.
In the data set with H4, `CC(C)(Oc1ccc(C(/N=N/c2ccc([N+](=O)[O-])cc2[N+](=O)[O-])c2ccc(Cl)cc2)cc1)C(=O)O` (stereo not given) displayed an Activity of 80 µM. The concentration for a half-maximal effect (EC50) on Gamma-secretase [1] turned out to be 47.6 µM. For the same compound, the IC50 came out at 37.3 µM on Gamma-secretase [2] and 17 µM at Gamma-secretase [3].
The compound `CN(C)c1cccc2c(S(=O)(=O)n3c4ccccc4c4ccc(OCC(=O)O)cc43)cccc12` came in with an Activity with H4 of 80 µM. At Gamma-secretase [1], the EC50 is greater than 40 µM. Further, the IC50 at Gamma-secretase [2] and at Gamma-secretase [3] was greater than 40 µM throughout.
Take `N#Cc1ccccc1-c1ccc(Cn2c3ccccc3c3ccc(OCC(=O)O)cc32)cc1`: the EC50 at Gamma-secretase [1] was greater than 80 µM. The IC50 on Gamma-secretase [2] and on Gamma-secretase [3] was greater than 80 µM each time.
Take `CCCCCCCCCCCO/N=C(/c1ccc(Cl)cc1)c1ccc(OC(C)(C)C(=O)O)cc1`: the EC50 on Gamma-secretase [1] was greater than 40 µM. The half-maximal inhibitory concentration (IC50) at Gamma-secretase [2] and on Gamma-secretase [3] was greater than 40 µM each time.
With `CCCCCCCC/C=C/CCCCCCCC(=O)n1c2ccccc2c2ccc(OCC(=O)O)cc21`, the 50% effective concentration (EC50) at Gamma-secretase [1] amounted to 9.3 µM. Moreover, the IC50 is greater than 40 µM on Gamma-secretase [2] and 13 µM at Gamma-secretase [3].
As for `CC(C)(Oc1ccc(/C(=N\OCCCCCCCCCO/N=C(/c2ccc(Cl)cc2)c2ccc(OC(C)(C)C(=O)O)cc2)c2ccc(Cl)cc2)cc1)C(=O)O`, the Activity in the data set with H4 turned out to be 80 µM. Further, the EC50 on Gamma-secretase [1] is greater than 40 µM. For the same compound, the IC50 at Gamma-secretase [2] and at Gamma-secretase [3] was greater than 40 µM in each case.
On to `CCCCCCCCCC(=O)n1c2ccccc2c2ccc(OCC(=O)O)cc21`, for which, at Gamma-secretase [1], the EC50 was determined as 12.6 µM. The 50% inhibitory concentration (IC50) on Gamma-secretase [2] is greater than 40 µM; on Gamma-secretase [3], 22.4 µM.
In the same order, the values of `O=C(O)COc1ccc2c3ccccc3n(Cc3cccc(C4(C(F)(F)F)N=N4)c3)c2c1` are greater than 80 µM, greater than 80 µM and greater than 80 µM.
For `CCCCCCCCCCCCCCO/N=C(/c1ccc(Cl)cc1)c1ccc(OC(C)(C)C(=O)O)cc1` the same measures were greater than 80 µM, greater than 80 µM and greater than 80 µM.
On to `CCCCCCCCCCO/N=C(/c1ccc(Cl)cc1)c1ccc(OC(C)(C)C(=O)O)cc1`, for which, in data set [4], the Activity came out at 60%. Moreover, on Gamma-secretase [1], the half-maximal effective concentration (EC50) is greater than 80 µM. The IC50 is greater than 80 µM at Gamma-secretase [2] and 36.1 µM at Gamma-secretase [3].
For the compound `CN(C)c1ccc(/N=N/c2ccc(S(=O)(=O)n3c4ccccc4c4ccc(OCC(=O)O)cc43)cc2)cc1`, the concentration giving a half-maximal response (EC50) on Gamma-secretase [1] was found to be 7.6 µM. For the same compound, the results for the IC50 at Gamma-secretase [2] and at Gamma-secretase [3] were greater than 80 µM and 9 µM, respectively.

Source of the values: ChEMBL document CHEMBL1153709, “NSAID-derived gamma-secretase modulators. Part III: Membrane anchoring” (Bioorg Med Chem Lett, 2009).
